Source: the NIST ThermoML archive (doi:10.1021/je900759f)

Test: molar heat capacity at constant pressure
Conditions: 101.33 kPa, Crystal, Vacuum adiabatic calorimetry

O=C([O-])c1ccccc1C(=O)O.[K+] [potassium 2-carboxybenzoate]
Conditions	molar heat capacity at constant pressure [J/K/mol]
78.74 K	81.22
81.08 K	82.76
83.42 K	85
85.62 K	86.29
88.11 K	88.06
90.01 K	90.07
92.06 K	91.25
94.25 K	92.66
96.3 K	94.19
98.21 K	95.73
100.26 K	97.26
102.01 K	98.56
104.21 K	100.09
105.82 K	101.39
107.72 K	102.68
109.48 K	103.75
111.23 K	104.92
112.99 K	106.1
114.45 K	107.52
116.5 K	108.7
118.55 K	109.99
120.9 K	111.65
122.65 K	112.71
126.02 K	114.95
128.9 K	117.28
131.81 K	119.26
134.65 K	120.84
137.63 K	123.15
140.07 K	124.62
143.44 K	126.5
146.3 K	128.75
149.29 K	130.28
152.07 K	132.04
155.1 K	134.02
158.03 K	135.88
161.04 K	137.98
163.86 K	139.4
166.86 K	141.12
169.72 K	142.95
172.65 K	144.78
175.6 K	146.73
178.52 K	148.14
181.46 K	150.06
185.51 K	152.18
189.58 K	154.71
192.49 K	156.69
195.39 K	157.97
198.33 K	160.11
201.39 K	161.41
204.34 K	163.34
207.27 K	164.59
210.19 K	166.59
213.12 K	168.36
216.13 K	169.91
219.11 K	171.34
222.05 K	173.08
224.97 K	174.49
228.05 K	176.26
230.83 K	177.91
233.76 K	178.97
236.83 K	180.98
239.77 K	182.23
243.54 K	184.12
247.46 K	186.25
250.44 K	188.14
253.42 K	189.68
256.45 K	190.76
259.37 K	192.3
262.36 K	193.82
265.34 K	195.71
268.16 K	196.89
271.14 K	198.67
274.12 K	200.21
277.08 K	201.26
280.08 K	203.28
283.06 K	204.58
286.04 K	205.65
289.09 K	207.51
292.02 K	208.57
294.94 K	210.1
298.02 K	211.04
300.8 K	213.17
303.87 K	214.11
306.8 K	215.52
309.73 K	216.94
312.51 K	218.12
315.58 K	219.65
318.36 K	221.3
321.29 K	222.01
324.37 K	223.43
327.29 K	224.96
330.37 K	226.61
333.44 K	228.14
336.37 K	229.67
339.3 K	230.85
342.37 K	232.15
345.3 K	233.33
348.37 K	234.39
351.3 K	236.4
354.23 K	237.46
357.16 K	239.23
360.08 K	240.52
363.01 K	241.35
365.94 K	243
368.87 K	243.71
371.83 K	244.81
374.87 K	246.77
377.94 K	248.3
380.93 K	249.42
383.91 K	250.96
386.89 K	252.02
390.03 K	253.44
393.01 K	254.98
395.98 K	255.93
